Several values for one entry are separate records, joined by “and”; a condition that tells them apart may be missing. Identical values can stand only once. Inconclusive results and toxic doses are left out. How the source made its calls: active means survival T/C of 150% or more; inactive means T/C below 125% in these data.
Tested on: CD2F1 mice, L1210 leukemia ip, survival T/C
Test: NCI In Vivo Anticancer Drug Screen. Data for tumor model L1210 Leukemia (intraperitoneal) in CD2F1 (CDF1) mice
Settings: higher = longer survival
How it was run: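 Mice carrying a transplanted tumor received test compound or vehicle alone. The value is the measurement in the treated group divided by that in the vehicle-treated control group.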

[1] = endpoint: mean survival time, dose: 100.0 mg/kg/injection, schedule: Q01DX001 (ip), vehicle: saline with Tween-80
[2] = endpoint: mean survival time, dose: 200.0 mg/kg/injection, schedule: Q01DX001 (ip), vehicle: saline with Tween-80
[3] = endpoint: mean survival time, dose: 100.0 mg/kg/injection, schedule: Q04DX002 (ip), vehicle: saline with Tween-80
[4] = endpoint: mean survival time, dose: 200.0 mg/kg/injection, schedule: Q04DX002 (ip), vehicle: saline with Tween-80
[5] = endpoint: mean survival time, dose: 400.0 mg/kg/injection, schedule: Q04DX002 (ip), vehicle: saline with Tween-80
[6] = endpoint: mean survival time, dose: 25.0 mg/kg/injection, schedule: Q01DX005 (ip), vehicle: water
[7] = endpoint: mean survival time, dose: 50.0 mg/kg/injection, schedule: Q01DX005 (ip), vehicle: water
[8] = endpoint: mean survival time, dose: 100.0 mg/kg/injection, schedule: Q01DX005 (ip), vehicle: water
[9] = endpoint: mean survival time, dose: 200.0 mg/kg/injection, schedule: Q01DX005 (ip), vehicle: water
[10] = endpoint: mean survival time, dose: 25.0 mg/kg/injection, schedule: Q04DX002 (ip), vehicle: saline with Tween-80
[11] = endpoint: mean survival time, dose: 100.0 mg/kg/injection, schedule: Q01DX009 (ip), vehicle: saline with Tween-80
[12] = endpoint: mean survival time, dose: 200.0 mg/kg/injection, schedule: Q01DX009 (ip), vehicle: saline with Tween-80
[13] = endpoint: mean survival time, dose: 100.0 mg/kg/injection, schedule: Q04DX003 (ip), vehicle: saline with Tween-80
[14] = endpoint: mean survival time, dose: 200.0 mg/kg/injection, schedule: Q04DX003 (ip), vehicle: saline with Tween-80
[15] = endpoint: mean survival time, dose: 400.0 mg/kg/injection, schedule: Q04DX003 (ip), vehicle: saline with Tween-80
[16] = endpoint: mean survival time, dose: 400.0 mg/kg/injection, schedule: Q01DX009 (ip), vehicle: saline with Tween-80

Measured: T/C

[Cl][Pt+2][Cl].[NH-]C1C(O)OC(CO)C(O)C1O.[NH-]C1C(O)OC(CO)C(O)C1O (configuration not stated)
inactive: endpoint: median survival time, dose: 2.5 mg/kg/injection, schedule: Q04DX003 (ip), vehicle: saline 105 % of control | endpoint: median survival time, dose: 5.0 mg/kg/injection, schedule: Q04DX003 (ip), vehicle: saline 110 % of control | endpoint: median survival time, dose: 10.0 mg/kg/injection, schedule: Q04DX003 (ip), vehicle: saline 93 % of control | endpoint: median survival time, dose: 20.0 mg/kg/injection, schedule: Q04DX003 (ip), vehicle: saline 100 % of control | endpoint: median survival time, dose: 25.0 mg/kg/injection, schedule: Q04DX003 (ip), vehicle: saline 103 % of control | endpoint: median survival time, dose: 50.0 mg/kg/injection, schedule: Q04DX003 (ip), vehicle: saline 105 % of control | endpoint: median survival time, dose: 100.0 mg/kg/injection, schedule: Q04DX003 (ip), vehicle: saline 103 % of control | endpoint: median survival time, dose: 200.0 mg/kg/injection, schedule: Q04DX003 (ip), vehicle: saline 101 % of control

CN(c1ccccc1)c1ccccc1
inactive: [1] 94 % of control | [2] 89 % of control

CC1=CC(=O)C(CCC(=O)O)C(C)(C)C1 (configuration not stated)
inactive: [3] 91 % of control | [4] 94 % of control | [5] 94 % of control

O=C1C=CC(=CC=C2C=CN(CCCCCCCCCCCO)C=C2)C=C1
inactive: endpoint: median survival time, dose: 1.56 mg/kg/injection, schedule: Q01DX005 (ip), vehicle: saline with Tween-80 96 % of control | endpoint: median survival time, dose: 2.25 mg/kg/injection, schedule: Q01DX005 (ip), vehicle: saline with Tween-80 102 % of control and 105 % of control | endpoint: median survival time, dose: 3.13 mg/kg/injection, schedule: Q01DX005 (ip), vehicle: saline with Tween-80 107 % of control | endpoint: median survival time, dose: 3.75 mg/kg/injection, schedule: Q01DX005 (ip), vehicle: saline with Tween-80 102 % of control and 105 % of control | endpoint: median survival time, dose: 6.25 mg/kg/injection, schedule: Q01DX005 (ip), vehicle: saline with Tween-80 117 % of control and 109 % of control | endpoint: median survival time, dose: 10.4 mg/kg/injection, schedule: Q01DX005 (ip), vehicle: saline with Tween-80 118 % of control | endpoint: median survival time, dose: 10.41 mg/kg/injection, schedule: Q01DX005 (ip), vehicle: saline with Tween-80 118 % of control | endpoint: median survival time, dose: 12.5 mg/kg/injection, schedule: Q01DX005 (ip), vehicle: saline with Tween-80 119 % of control | endpoint: median survival time, dose: 17.35 mg/kg/injection, schedule: Q01DX005 (ip), vehicle: saline with Tween-80 119 % of control | endpoint: median survival time, dose: 17.4 mg/kg/injection, schedule: Q01DX005 (ip), vehicle: saline with Tween-80 121 % of control | endpoint: median survival time, dose: 25.0 mg/kg/injection, schedule: Q01DX005 (ip), vehicle: saline with Tween-80 92 % of control

Cc1nc(C(=O)O)c(C)c(=O)[nH]1
inactive: [6] 98 % of control | [7] 104 % of control | [8] 89 % of control | [9] 87 % of control

Cn1c(=O)c2c(nc(N3CCOCC3)n2CCCNCC(O)c2ccc(O)cc2)n(C)c1=O (configuration not stated)
inactive: endpoint: mean survival time, dose: 12.5 mg/kg/injection, schedule: Q01DX005 (ip), vehicle: water 102 % of control | [6] 104 % of control | [7] 100 % of control | [8] 98 % of control | [9] 104 % of control

[I][Ni][I].c1ccc([PH+](c2ccccc2)c2ccccc2)cc1.c1ccc([PH+](c2ccccc2)c2ccccc2)cc1
inactive: [3] 87 % of control | [4] 91 % of control | [5] 87 % of control

NC(CS)=NC1CCCCC1
inactive: endpoint: mean survival time, dose: 12.5 mg/kg/injection, schedule: Q04DX002 (ip), vehicle: saline with Tween-80 104 % of control | [10] 96 % of control

NC(N)=N/N=C\c1ccc2ccccc2c1
inactive: [10] 97 % of control | endpoint: mean survival time, dose: 50.0 mg/kg/injection, schedule: Q04DX002 (ip), vehicle: saline with Tween-80 101 % of control

O=C(O)CCC(=O)c1ccccc1
inactive: endpoint: mean survival time, dose: 50.0 mg/kg/injection, schedule: Q01DX009 (ip), vehicle: saline with Tween-80 101 % of control | [11] 106 % of control | [12] 106 % of control

CC(CNC1CCCCC1)OC(=O)c1ccc(N(C)C)cc1 (configuration not stated)
inactive: endpoint: mean survival time, dose: 75.0 mg/kg/injection, schedule: Q01DX001 (ip), vehicle: saline 99 % of control | endpoint: mean survival time, dose: 150.0 mg/kg/injection, schedule: Q01DX001 (ip), vehicle: saline 100 % of control

C[Si](C)(C)C1([Si](C)(C)C)SCCCS1
inactive: endpoint: mean survival time, dose: 50.0 mg/kg/injection, schedule: Q01DX009 (ip), vehicle: other 105 % of control | endpoint: mean survival time, dose: 100.0 mg/kg/injection, schedule: Q01DX009 (ip), vehicle: other 105 % of control | endpoint: mean survival time, dose: 200.0 mg/kg/injection, schedule: Q01DX009 (ip), vehicle: other 102 % of control

C=C1C[C@@H](O)[C@H](O)[C@@]2(C)C[C@@H]3OC(=O)C(=C)[C@@H]3C[C@H]12
inactive: [11] 102 % of control

COc1cc(/C=N/NC(=O)c2cccs2)cc(OC)c1OC
inactive: [13] 98 % of control | [14] 93 % of control | [15] 88 % of control

CCOC(=O)Nc1ccc(F)cc1F
inactive: [11] 94 % of control | [12] 94 % of control | [16] 100 % of control

COC1OC(C)CC(C)(C)O1 (configuration not stated)
inactive: endpoint: mean survival time, dose: 100.0 mg/kg/injection, schedule: Q04DX002 (ip), vehicle: saline 89 % of control | endpoint: mean survival time, dose: 200.0 mg/kg/injection, schedule: Q04DX002 (ip), vehicle: saline 96 % of control | endpoint: mean survival time, dose: 400.0 mg/kg/injection, schedule: Q04DX002 (ip), vehicle: saline 100 % of control

N#Cc1ccccc1C(C#N)c1ccc([N+](=O)[O-])cc1 (configuration not stated)
inactive: endpoint: mean survival time, dose: 50.0 mg/kg/injection, schedule: Q04DX003 (ip), vehicle: DMSO 93 % of control | endpoint: mean survival time, dose: 100.0 mg/kg/injection, schedule: Q04DX003 (ip), vehicle: DMSO 98 % of control | endpoint: mean survival time, dose: 200.0 mg/kg/injection, schedule: Q04DX003 (ip), vehicle: DMSO 93 % of control | endpoint: mean survival time, dose: 400.0 mg/kg/injection, schedule: Q04DX003 (ip), vehicle: DMSO 96 % of control

N#CO
inactive: endpoint: mean survival time, dose: 50.0 mg/kg/injection, schedule: Q01DX009 (ip), vehicle: saline sonified 100 % of control | endpoint: mean survival time, dose: 100.0 mg/kg/injection, schedule: Q01DX009 (ip), vehicle: saline sonified 118 % of control | endpoint: mean survival time, dose: 100.0 mg/kg/injection, schedule: Q04DX003 (ip), vehicle: saline 98 % of control | endpoint: mean survival time, dose: 200.0 mg/kg/injection, schedule: Q04DX003 (ip), vehicle: saline 112 % of control

CCCP(=O)(CCC)CCC
inactive: endpoint: mean survival time, dose: 25.0 mg/kg/injection, schedule: Q01DX001 (ip), vehicle: saline with Tween-80 94 % of control | endpoint: mean survival time, dose: 50.0 mg/kg/injection, schedule: Q01DX001 (ip), vehicle: saline with Tween-80 96 % of control | [1] 94 % of control

O=C(Nc1cccc(S(=O)(=O)F)c1)c1cccc([N+](=O)[O-])c1
inactive: [13] 105 % of control | [14] 102 % of control | [15] 96 % of control

CC1CC(=O)C(CCC#N)=C(O)C1 (configuration not stated)
inactive: [13] 94 % of control | [14] 91 % of control | [15] 91 % of control

Nc1ncnc2c1[nH]c(=O)n2C1OC(CO)C(O)C1O (configuration not stated)
inactive: [3] 95 % of control | [4] 107 % of control | [5] 95 % of control

BrC1CCCCCCC1Br (configuration not stated)
inactive: endpoint: mean survival time, dose: 25.0 mg/kg/injection, schedule: Q01DX009 (ip), vehicle: saline 96 % of control | endpoint: mean survival time, dose: 50.0 mg/kg/injection, schedule: Q01DX009 (ip), vehicle: saline 94 % of control | endpoint: mean survival time, dose: 100.0 mg/kg/injection, schedule: Q01DX009 (ip), vehicle: saline 93 % of control

O=C(O)/C=C/C(=O)Nc1ccc(C(=O)O)cc1
inactive: [1] 94 % of control | [11] 91 % of control | [2] 92 % of control | [12] 96 % of control | endpoint: mean survival time, dose: 400.0 mg/kg/injection, schedule: Q01DX001 (ip), vehicle: saline with Tween-80 92 % of control | [16] 89 % of control

CCCCCC(Br)C(Br)CC(Br)C(Br)CCCCCCCC(=O)O (configuration not stated)
inactive: endpoint: mean survival time, dose: 100.0 mg/kg/injection, schedule: Q01DX009 (ip), vehicle: acetone 95 % of control | endpoint: mean survival time, dose: 200.0 mg/kg/injection, schedule: Q01DX009 (ip), vehicle: acetone 92 % of control | endpoint: mean survival time, dose: 400.0 mg/kg/injection, schedule: Q01DX009 (ip), vehicle: acetone 90 % of control

O=[n+]1ccn2cc3ccccc3cc2c1
inactive: endpoint: mean survival time, dose: 12.5 mg/kg/injection, schedule: Q04DX003 (ip), vehicle: saline with Tween-80 86 % of control | endpoint: mean survival time, dose: 50.0 mg/kg/injection, schedule: Q04DX003 (ip), vehicle: saline with Tween-80 100 % of control

Reference: PubChem BioAssay AID256 (DTP/NCI, 2004)
